Consider 35 molecules from PubChem BioAssay (NCI).

Test in all cases: inhibition of tumour cell growth, NCI panel, 48 h
In assay [1] the test system is DLD-1 colon.
Assay [2] concerns DMS 273 small cell lung.
The test system of assay [3] is KM20L2 colon.
Assay [4] relates to SNB-78 CNS.
Assay [5] deals with XF 498 CNS.
Assay [6] relates to DMS 114 small cell lung.
For assay [7], the system named is LXFL 529 NSCLC.
Assay [8] relates to T-47D breast.
The subject of assay [9] is HS 578T breast.
The subject of assay [10] is BT-549 breast.

Structures are written as SMILES. Several values for one entry are separate records, joined by “and”; a condition that tells them apart may be missing. Equal values may be shown once.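 All cell lines were grown in 96-well plates and treated with compound for 48 hours. The concentration for 50% growth inhibition is given as GI50. TGI denotes the concentration required for complete inhibition of growth.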 Bounds are passed on as bounds.

With `N#Cc1c2c(c(N=[N+]=[N-])n3c1nc1ccccc13)CCCC2`, the TGI stood at 2.94 µM in assay [1]; 6.52 µM in assay [2]; 4.6 µM in assay [3]; 11.5 µM in assay [4]; 3.13 µM in [5]; 4.37 µM in assay [6].
On to `CCOC(=O)/C=C1\Nc2ccccc2C(c2ccccc2)=NC1OC(C)=O` (centres undefined), for which the TGI in assay [1], in assay [2], in assay [4], in [7] and in assay [6] was greater than 100 µM throughout.
With `CN1CC2(CCCCC2)C(O)C12C=CCCC2` (centres undefined), the TGI in assay [1], in [2], in [3], in assay [4], in assay [5] and in [7] was greater than 100 µM each time. In [6], this molecule registered a TGI greater than 100 µM.
Take `COc1ccc(S(=O)(=O)N/N=C/C(=O)O)cc1`: the TGI was greater than 1250 µM in assay [1]; greater than 1200 µM in [2]; greater than 1250 µM in assay [3]; greater than 1250 µM in [4]; greater than 1080 µM in assay [5]; 1230 µM in assay [6]. The values for the TGI in assay [8], in [9] and in assay [10] were greater than 1250 µM, 1040 µM and 704 µM, respectively.
Take `O=C1c2c(O)cccc2C(C(=O)CCCCC(=O)C2c3cccc(O)c3C(=O)c3c(O)cccc32)c2cccc(O)c21`: the GI50 was 1.68 µM in [1]; 1.58 µM in [3]; 1.97 µM in assay [4]; 1.04 µM in assay [7]; 1.01 µM in assay [6]. Further, the TGI is 4.52 µM and 9.27 µM in assay [1]; 4.51 µM in [2]; 4.39 µM and 5.46 µM in assay [3]; 1.23 µM and 5.93 µM in assay [4]; 1.18 µM in assay [5]; 1.01 µM and 1.95 µM in [7]. In addition, the TGI was 1.48 µM and 1.83 µM in [6]; 0.919 µM in [8]; 0.951 µM in [9]; 1.96 µM in assay [10].
As for `O=c1c2ccccc2nc(-c2ccccc2)n1NCC1(O)OCC(O)C(O)C1O` (centres undefined), the TGI in assay [1], in assay [2], in assay [3], in assay [4], in assay [7] and in assay [6] was greater than 100 µM each time.
As for `C/C(=N\NS(=O)(=O)c1ccc(C)cc1)c1ccc[n+]([O-])n1`, the TGI in assay [1], in [2], in [3], in assay [5], in assay [7] and in assay [6] was greater than 100 µM throughout.
As for `CC(C)c1ccc(/C=C(\NC(=O)c2ccccc2)c2nc3ccccc3[nH]2)cc1`, the TGI in [1], in [2], in assay [3], in assay [4], in assay [5] and in assay [7] was greater than 100 µM throughout. Further, the TGI in [6] came out at 92.8 µM.
For the molecule `COC(=O)/C(C#N)=C1\N=NNN1CCCN1CCOCC1`, the TGI in assay [1], in assay [2], in assay [4], in assay [7] and in assay [6] was greater than 100 µM throughout.
In the case of `O=C1CCC2(CCC(=O)NC2=O)C(=O)N1`, the TGI in assay [2], in assay [3], in assay [5], in [7] and in [6] was greater than 100 µM in each case.
Consider `O=C(CCCCCCCCC(=O)OCC1OC(n2cnc3c(=O)[nH]cnc32)C(O)C1O)OCC1OC(n2cnc3c(=O)[nH]cnc32)C(O)C1O` (centres undefined), for which the TGI in assay [1], in assay [2], in assay [3], in assay [4], in assay [5] and in assay [6] was greater than 100 µM throughout.
For `Cc1ccc(NC(=O)CCC(=O)C2CC(=O)CC/C2=N\NC(=O)c2cc3ccccc3cc2O)cc1C` (centres undefined), the TGI was greater than 100 µM in assay [1]; 43.1 µM in [2]; 87.9 µM in [3]; greater than 100 µM in assay [4]; 99 µM in assay [5]; greater than 100 µM in assay [7]. The molecule further showed a TGI in [6] of 51.6 µM.
On to `COc1cc2c3c(c1OC)-c1ccccc1C(C(OC(C)=O)c1ccccc1)C3N(C)CC2` (centres undefined), for which the TGI in [1] is 91 µM; in assay [2] it was greater than 100 µM; in assay [3], greater than 100 µM; in assay [4], greater than 100 µM; in assay [7] it was greater than 100 µM; in [6] it was greater than 100 µM.
With `COc1cc2ccn3c4cc(OC)c(OC)cc4cc3c2cc1OC`, the TGI in assay [1], in assay [3], in assay [4], in [5], in [7] and in assay [6] was greater than 100 µM each time.
For the molecule `c1ccc(SCCCC(Sc2ccccc2)Sc2ccccc2)cc1`, the TGI in [1], in assay [2], in assay [3], in [4], in assay [5] and in assay [7] was greater than 100 µM throughout. Further, in [6], the TGI is greater than 100 µM.
As to `CC1=C(C#N)C(N)=C2C(C)=C(C#N)C(N)=C12`, the TGI in assay [1], in assay [2], in assay [3], in assay [4], in assay [5] and in [7] was greater than 100 µM throughout. In addition, in assay [6], the TGI was greater than 100 µM.
`Cc1nnc2n1N=C(CC(=O)c1ccc(O)cc1O)CN2N`: the TGI was greater than 100 µM in assay [1]; greater than 100 µM in assay [2]; greater than 100 µM in assay [3]; greater than 100 µM in assay [4]; greater than 100 µM in assay [7]; 40 µM in assay [6].
On to `O=C(O)c1cc(Cl)cc(NC(=O)C(Cl)Cl)c1Cl`, for which the TGI in assay [1], in assay [2], in assay [3], in assay [4], in assay [5] and in assay [7] was greater than 100 µM throughout. The TGI in [6] is greater than 100 µM.
As for `CCOC(=O)CCC1(C(=O)OC)CCCC1=O` (centres undefined), the TGI in assay [1], in assay [2], in assay [3], in assay [4], in [5] and in assay [7] was greater than 100 µM throughout. The TGI in assay [6] was greater than 100 µM.
Take `CC1CCC(O)C(C(O)CC2CC(=O)N(C)C(=O)C2)C1` (centres undefined): the TGI in [1], in assay [2], in assay [3], in assay [4], in assay [5] and in assay [7] was greater than 100 µM in each case. In assay [6], this molecule had a TGI greater than 100 µM.
Turning to `COc1ccc2cccc(C(=N)c3ccc(C)c4c3CCC4)c2c1`, the TGI is 21.2 µM in [2], 19.3 µM in assay [3], 16.5 µM in assay [7] and 19.9 µM in [6].
For `Brc1ccc2c(c1)C1(c3cc(Br)ccc3-2)c2cc(Br)ccc2-c2ccc(Br)cc21`, the TGI in [1], in assay [2], in [3], in assay [4], in [5] and in assay [7] was greater than 100 µM in each case. Besides, the TGI in assay [6] is greater than 100 µM.
As for `COc1ccc([Se]c2ccc(OC)cc2OC)c(OC)c1`, the TGI in [1] is greater than 100 µM; in assay [2] it was 17.6 µM; in assay [3], 31.6 µM; in assay [4] it was 96.6 µM; in assay [5] it was greater than 100 µM; in assay [7] it was greater than 100 µM. The TGI in assay [6] came to 13 µM.
Take `Oc1cc2cc(-c3ccccc3)[nH]c2c2ccccc12`: the TGI in [1] is greater than 100 µM; in [2], 2.06 µM; in assay [3], greater than 100 µM; in [4], greater than 100 µM; in assay [5], 25.9 µM; in [7], greater than 100 µM. The same molecule registered a TGI in assay [6] of 27.7 µM.
On to `O=C1OCC(C(=O)c2cccc(O)c2)C1=O` (centres undefined), for which the TGI in [1], in assay [2], in assay [3], in assay [4], in assay [7] and in assay [6] was greater than 100 µM throughout.
For the molecule `COC(=O)C12CC(C3CC31)C1CC12` (centres undefined), the TGI in [1], in assay [2], in assay [3], in [7] and in assay [6] was greater than 100 µM in each case.
For `CC1=CC2=C(C)C3(CC3)[C@@](C)(O)C(=O)C2=C1`, the TGI in [1] was greater than 0.935 µM; in [2], 0.696 µM; in [3], 0.498 µM; in [4], greater than 0.631 µM; in assay [5], 0.341 µM; in [7] it was 0.783 µM. In [6], this molecule registered a TGI of 0.313 µM.
For the molecule `O=c1[nH]c(=O)n(C2CC(O)C(CO)O2)cc1C#Cc1ccc(C(F)(F)F)cc1` (centres undefined), the TGI in assay [1], in assay [2], in assay [3], in assay [5], in assay [7] and in assay [6] was greater than 100 µM throughout.
As to `CCC1OCCN1C(C)C` (centres undefined), the TGI in assay [1], in [2], in [3], in [4], in assay [7] and in assay [6] was greater than 100 µM throughout.
Take `CC1OC(=O)N(CCCC=C2SCCCS2)C1=O` (centres undefined): the TGI in assay [2], in assay [3], in assay [4], in assay [5], in [7] and in assay [6] was greater than 100 µM in each case.
In the case of `Cc1cc(CS(=O)(=O)/C=C/c2ccccc2[N+](=O)[O-])c(CS(=O)(=O)/C=C/c2ccccc2[N+](=O)[O-])cc1C`, the TGI is greater than 100 µM in assay [2]; greater than 100 µM in [3]; 66.2 µM in [4]; 38.3 µM in assay [5]; greater than 100 µM in [7]; greater than 100 µM in assay [6]. For the same molecule, the TGI was greater than 100 µM in assay [8], greater than 62.5 µM in assay [9] and 44.4 µM in assay [10].
Regarding `CCOC(=O)c1cnc2[nH]c(=O)c3ccccc3n2c1=O`, the TGI in assay [1], in assay [2], in [3], in assay [4], in assay [5] and in assay [7] was greater than 100 µM each time.
Consider `c1ccc2c(c1)CCCc1cc3ccccc3nc1-2`, for which the TGI is greater than 100 µM in [1]; greater than 100 µM in assay [3]; greater than 100 µM in assay [4]; greater than 100 µM in [5]; greater than 100 µM in assay [7]; 75.1 µM in assay [6].
Take `Clc1ccc2c(Cl)ncnc2c1`: the TGI in [1], in assay [2], in [3] and in assay [5] was greater than 100 µM in each case.
`COC(=O)C(CC=O)C(=O)C(=O)Nc1cccc(C(F)(F)F)c1` (centres undefined): the TGI in [1], in [3], in assay [4], in assay [5], in assay [7] and in [6] was greater than 100 µM throughout.
